Key:
Type in all cases: cell-based, Human
[1] = test system: A549 cells; test: Cell viability (MTS) of gRNA-targeted A549 cells; settings: without any cisplatin exposure (0 uM), vs wildtype untransfected cells
Text: FIG. 4A-C: Lung adenocarcinoma cells targeting Exon 3, 4, 5 of NRF2 and assessment of chemotherapy response. (FIG. 4A) A549 cells were transfected with each respective gRNA. Genomic DNA from each cell population was isolated and amplified across exon 3, 4 or 5 of the NRF2 gene. Amplicons were sanger sequenced and analyzed for indels at the CRISPR target site. The graph presents the total editing efficiency listed as Indel and frameshifting indel % listed as FS. (FIG. 4B) Raw sequence files from cells targeted with gRNA 76 or gRNA 83 were aligned using the software program, DECODR, to display the indel pattern (listed as INDEL and %). […] Viability was measured via bioreduction of MTS to a formazan product. […] The average relative viability of cells in response to cisplatin is graphed above.
To assess CRISPR activity across various exons of NRF2, several gRNAs were designed along exon 3, 4 and 5 of the NRF2 gene in the A549 cell line. The A549 cells were transfected with each individually designed gRNA and cells were collected 72 hours after transfection. Genomic DNA was isolated, PCR amplified and Sanger sequenced. Editing activity was quantified using DECODR to deconvolute the indels present in at the cut site of each gRNA. […]

[2] = test system: Panc-1 cells; test: Cell viability with gemcitabine, CellTiter-Glo 2.0, Panc-1 cells; settings: Panc-1 cells, in the absence of gemcitabine
Method: Wildtype and transfected Panc-1 cells were plated to 24 well plates (n=5) at 50,000 cells per well and placed in incubator for 24 hours. The cells were then treated with either Gemcitabine (Selleckchem, Cat. S1714) or DMSO (Thermo Fisher, Cat. D12345). Cells treated with Gemcitabine were treated at one of the following concentrations: 0 μM, 2.5 μM, 5 μM, 25 μM while cells treated with DMSO were treated at: 0%, 0.025%, 0.05%, or 0.25%. Cells remained in Gemcitabine or DMSO for 72 hours before being evaluated using CellTiter-Glo 2.0 Cell Viability Assay (Promega, Cat. G9241).
Since our long-term objective is to develop an effective genetic treatment that would augment standard care, we decided to examine the possibility that we could restore sensitivity to gemcitabine by genetic editing of NRF2 in gemcitabine resistant Panc1 cells. We are using gemcitabine as a selection system to determine if gene editing at some level, can help restore tumor cell killing. We established the kill curve of Panc1 unedited cells by gemcitabine under our standard reaction conditions to serve as a baseline. […] Again, after 72 hours, each cell population was exposed to gemcitabine for an additional 72 hours and thereafter cell viability of the treated and untreated cells was measured using the Cell Titer 2.0 viability assay (Promega, Madison, WI, USA). […]

[3] = test system: NRF2; test: NRF2 western blot in Panc-1 cells; settings: edited Panc-1 populations vs unedited, GAPDH loading control
Method: Panc-1 cell pellets were collected using a standard RIPA lysis buffer containing protease inhibitor cocktail. Total protein concentration of collected cells was then determined using BCA Protein Assay kit (Pierce, Rockford, IL, USA). The samples were boiled at 95° C. for 10 minutes and then underwent SDS-PAGE on a 10% Mini-PROTEAN TGX Stain-free Protein Gel (BioRad, Cat. 4568033) for 90 min at 100 V. The gel was then transferred to a nitrocellulose membrane using Trans-Blot Turbo Transfer Systems (BioRad, Hercules, CA, USA) with Trans-Blot Turbo RTA Mini 0.2 μm Nitrocellulose Transfer Kit (BioRad Cat. 1704158), mixed molecular weight program, 10 minutes. The blot was placed in 5% milk and blocked at room temperature on shaker for 2 hours. Incubation in primary NRF2 antibody was done overnight at 4° C. on shaker (1:1,000, Abcam ab62352). Membrane was then incubated at room temperature on shaker for 1 hour in NRF2 secondary (1:10,000, Abcam ab205718). The SuperSignal West Dura Extended Duration ECL (Pierce) kit was used on the LI-COR Odyssey FC to visualize bands. […]

**Q.** For “sg83: gRNA targeting exon 4 of NRF2; GTAGCCCCTGTTGATTTAGA CGG (guide GTAGCCCCTGTTGATTTAGACGG; listed as DNA, chemistry not given here)”, which viability [1] is on record?
**A.** much lower viability

**Q.** And the cell killing [2]?
**A.** approximately 40%

**Q.** And the NRF2 protein knock down [3]?
**A.** significant knockdown of protein
